# Measured values: patent US10752626B2, “Iso-citrate dehydrogenase (IDH) inhibitor” (SHANGHAI METON PHARMACEUTICAL CO., LTD, priority 2016, dated 2020)
# Assay: in vitro
# Details: microsomes; for % remaining #1 / % remaining #2 / Ln (% remaining) #1 / Ln (% remaining) #2 / Mean Ln(% remaining): 1 μM, pH 7.4; for microsomal CLint at 1 μM: pH 7.4, CLint; for half-life at 1 μM: pH 7.4, T1/2
# Experimental: The liver microsomes of mouse, rat, dog, monkey and human were purchased from Corning Inc., and were stored at −60° C. prior to use. The acetonitrile and NADPH were purchased from Honeywell International Inc. (New Jersey, U.S.) and Roche Inc. (Basel, Swiss).
# Reactions were initiated by adding NADPH to a final concentration of 1 mM. The final volume of each reaction mixture was 0.2 ml, and all reactions were performed in duplicate. At each set time point (0, 5, 15, 30 and 60 min), a small aliquot (e.g., 20 μl) was transferred from the reaction system into ice-cold internal standard (IS) containing acetonitrile to quench the reaction and to precipitate the protein. After vortex and centrifuge at 3700 rpm for 10 min, the supernatant was injected into LC-MS/MS for analysis.
# In vitro microsomal clearance was estimated based on determination of elimination half-life (T1/2) of compounds disappearance from their initial concentrations. Peak area ratios of each compound (test or control) to IS was calculated. Ln (% Control) versus Incubation Time (min) curve was plotted, and the slope of a linear fitting line was calculated. Drug elimination rate constant k (min^−1), T1/2 (min), and in vitro intrinsic clearance CLint (mL·min^−1·mg^−1 proteins) was calculated according to the following equations: k=−slope T1/2=0.693/k CLint=k/Cprotein where Cprotein (mg·mL^−1) is the microsomal protein concentration in the incubation system. Test 3: Metabolic Stability Assay in Mouse Plasma
# In this study, the metabolic stability of the compounds was assessed in mouse, rat, dog, monkey and human liver microsome according to the method disclosed in Test 2 of the Biological evaluation section.
structure (smiles),measurement,setting,value
"CCN1Cc2c(ccnc2N[C@@H](C)c2ccc(Oc3ccc(C)cc3)cc2)C1=O [Compound 16, (S)-2-ethyl-4-(1-(4-(p-tolyloxy)phenyl)ethylamino)-2,3-dihydro-1H-pyrrolo [3,4-c]pyridin-1-one]",% remaining #1,"dog, 0 h",100%
same,% remaining #2,"dog, 0 h",100%
same,Ln (% remaining) #1,"dog, 0 h",4.61
same,Ln (% remaining) #2,"dog, 0 h",4.61
same,Mean Ln(% remaining),"dog, 0 h",4.61
same,% remaining #1,"dog, 5 min",105%
same,% remaining #2,"dog, 5 min",106%
same,Ln (% remaining) #1,"dog, 5 min",4.65
same,Ln (% remaining) #2,"dog, 5 min",4.66
same,Mean Ln(% remaining),"dog, 5 min",4.66
same,% remaining #1,"dog, 0.25 h",94.6%
same,% remaining #2,"dog, 0.25 h",85.4%
same,Ln (% remaining) #1,"dog, 0.25 h",4.55
same,Ln (% remaining) #2,"dog, 0.25 h",4.45
same,Mean Ln(% remaining),"dog, 0.25 h",4.50
same,% remaining #1,"dog, 0.5 h",76.5%
same,% remaining #2,"dog, 0.5 h",76.0%
same,Ln (% remaining) #1,"dog, 0.5 h",4.34
same,Ln (% remaining) #2,"dog, 0.5 h",4.33
same,Mean Ln(% remaining),"dog, 0.5 h",4.33
same,% remaining #1,"dog, 1 h",52.8%
same,% remaining #2,"dog, 1 h",48.8%
same,Ln (% remaining) #1,"dog, 1 h",3.97
same,Ln (% remaining) #2,"dog, 1 h",3.89
same,Mean Ln(% remaining),"dog, 1 h",3.93
same,microsomal CLint at 1 μM,dog,23 µL/min/mg
same,half-life at 1 μM,dog,60.3 min
same,stability in human liver microsome,human,medium stability
same,% remaining #1,"human, 0 h",100%
same,% remaining #2,"human, 0 h",100%
same,Ln (% remaining) #1,"human, 0 h",4.61
same,Ln (% remaining) #2,"human, 0 h",4.61
same,Mean Ln(% remaining),"human, 0 h",4.61
same,% remaining #1,"human, 5 min",87.1%
same,% remaining #2,"human, 5 min",90.5%
same,Ln (% remaining) #1,"human, 5 min",4.47
same,Ln (% remaining) #2,"human, 5 min",4.51
same,Mean Ln(% remaining),"human, 5 min",4.49
same,% remaining #1,"human, 0.25 h",65.7%
same,% remaining #2,"human, 0.25 h",69.0%
same,Ln (% remaining) #1,"human, 0.25 h",4.18
same,Ln (% remaining) #2,"human, 0.25 h",4.23
same,Mean Ln(% remaining),"human, 0.25 h",4.21
same,% remaining #1,"human, 0.5 h",51.7%
same,% remaining #2,"human, 0.5 h",50.5%
same,Ln (% remaining) #1,"human, 0.5 h",3.95
same,Ln (% remaining) #2,"human, 0.5 h",3.92
same,Mean Ln(% remaining),"human, 0.5 h",3.93
same,% remaining #1,"human, 1 h",26.2%
same,% remaining #2,"human, 1 h",25.4%
same,Ln (% remaining) #1,"human, 1 h",3.27
same,Ln (% remaining) #2,"human, 1 h",3.23
same,Mean Ln(% remaining),"human, 1 h",3.25
same,microsomal CLint at 1 μM,human,43.6 µL/min/mg
same,half-life at 1 μM,human,31.8 min
same,% remaining #1,"monkey, 0 h",100%
same,% remaining #2,"monkey, 0 h",100%
same,Ln (% remaining) #1,"monkey, 0 h",4.61
same,Ln (% remaining) #2,"monkey, 0 h",4.61
same,Mean Ln(% remaining),"monkey, 0 h",4.61
same,% remaining #1,"monkey, 5 min",66.1%
same,% remaining #2,"monkey, 5 min",72.7%
same,Ln (% remaining) #1,"monkey, 5 min",4.19
same,Ln (% remaining) #2,"monkey, 5 min",4.29
same,Mean Ln(% remaining),"monkey, 5 min",4.24
same,% remaining #1,"monkey, 0.25 h",32.5%
same,% remaining #2,"monkey, 0.25 h",35.4%
same,Ln (% remaining) #1,"monkey, 0.25 h",3.48
same,Ln (% remaining) #2,"monkey, 0.25 h",3.57
same,Mean Ln(% remaining),"monkey, 0.25 h",3.52
same,% remaining #1,"monkey, 0.5 h",12.5%
same,% remaining #2,"monkey, 0.5 h",12.2%
same,Ln (% remaining) #1,"monkey, 0.5 h",2.53
same,Ln (% remaining) #2,"monkey, 0.5 h",2.51
same,Mean Ln(% remaining),"monkey, 0.5 h",2.52
same,% remaining #1,"monkey, 1 h",2.13%
same,% remaining #2,"monkey, 1 h",2.06%
same,Ln (% remaining) #1,"monkey, 1 h",0.757
same,Ln (% remaining) #2,"monkey, 1 h",0.725
same,Mean Ln(% remaining),"monkey, 1 h",0.741
same,microsomal CLint at 1 μM,monkey,127 µL/min/mg
same,half-life at 1 μM,monkey,10.9 min
same,% remaining #1,"mouse, 0 h",100%
same,% remaining #2,"mouse, 0 h",100%
same,Ln (% remaining) #1,"mouse, 0 h",4.61
same,Ln (% remaining) #2,"mouse, 0 h",4.61
same,Mean Ln(% remaining),"mouse, 0 h",4.61
same,% remaining #1,"mouse, 5 min",88.1%
same,% remaining #2,"mouse, 5 min",94.2%
same,Ln (% remaining) #1,"mouse, 5 min",4.48
same,Ln (% remaining) #2,"mouse, 5 min",4.55
same,Mean Ln(% remaining),"mouse, 5 min",4.51
same,% remaining #1,"mouse, 0.25 h",72.7%
same,% remaining #2,"mouse, 0.25 h",80.8%
same,Ln (% remaining) #1,"mouse, 0.25 h",4.29
same,Ln (% remaining) #2,"mouse, 0.25 h",4.39
same,Mean Ln(% remaining),"mouse, 0.25 h",4.34
same,% remaining #1,"mouse, 0.5 h",31.0%
same,% remaining #2,"mouse, 0.5 h",43.8%
same,Ln (% remaining) #1,"mouse, 0.5 h",3.43
same,Ln (% remaining) #2,"mouse, 0.5 h",3.78
same,Mean Ln(% remaining),"mouse, 0.5 h",3.61
same,% remaining #1,"mouse, 1 h",10.6%
same,% remaining #2,"mouse, 1 h",12.0%
same,Ln (% remaining) #1,"mouse, 1 h",2.36
same,Ln (% remaining) #2,"mouse, 1 h",2.48
same,Mean Ln(% remaining),"mouse, 1 h",2.42
same,microsomal CLint at 1 μM,mouse,77.4 µL/min/mg
same,half-life at 1 μM,mouse,17.9 min
same,% remaining #1,"rat, 0 h",100%
same,% remaining #2,"rat, 0 h",100%
same,Ln (% remaining) #1,"rat, 0 h",4.61
same,Ln (% remaining) #2,"rat, 0 h",4.61
same,Mean Ln(% remaining),"rat, 0 h",4.61
same,% remaining #1,"rat, 5 min",90.0%
same,% remaining #2,"rat, 5 min",111%
same,Ln (% remaining) #1,"rat, 5 min",4.50
same,Ln (% remaining) #2,"rat, 5 min",4.71
same,Mean Ln(% remaining),"rat, 5 min",4.61
same,% remaining #1,"rat, 0.25 h",59.4%
same,% remaining #2,"rat, 0.25 h",92.3%
same,Ln (% remaining) #1,"rat, 0.25 h",4.09
same,Ln (% remaining) #2,"rat, 0.25 h",4.53
same,Mean Ln(% remaining),"rat, 0.25 h",4.31
same,% remaining #1,"rat, 0.5 h",35.8%
same,% remaining #2,"rat, 0.5 h",62.9%
same,Ln (% remaining) #1,"rat, 0.5 h",3.58
same,Ln (% remaining) #2,"rat, 0.5 h",4.14
same,Mean Ln(% remaining),"rat, 0.5 h",3.86
same,% remaining #1,"rat, 1 h",14.0%
same,% remaining #2,"rat, 1 h",24.1%
same,Ln (% remaining) #1,"rat, 1 h",2.64
same,Ln (% remaining) #2,"rat, 1 h",3.18
same,Mean Ln(% remaining),"rat, 1 h",2.91
same,microsomal CLint at 1 μM,rat,66.5 µL/min/mg
same,half-life at 1 μM,rat,20.8 min
